{"source": "patent US10220092B2", "about": "“Devices, systems and methods for optogenetic modulation of action potentials in target cells” (The Board of Trustees of the Leland Stanford Junior …, priority 2013, dated 2019)", "key": {"[1]": {"tested_on": "cultured hippocampal neurons", "assay": "Whole cell patch clamp of cultured hippocampal neurons expressing eArch3.0-ASIC2a (Champ) constructs", "format": "cell-based, rat", "excerpt": "Construct design for hippocampal neurons: The protein sequence of rat ASIC2a (Genbank accession number NM_001034014.1) was human codon optimized and synthesized by Genscript. eArch3.0 and ASIC-YFP fusions were cloned into an AAV2 backbone either under a CaMKIIα or human synapsin promoter. The trafficking signal (TS) and endoplasmic reticulum export signal (ER) sequences were appropriately added to enhance membrane trafficking. All maps and sequence details are on the website: www(dot)optogenetics(dot)org.\nHippocampal neuron culture and calcium phosphate transfection (as per Mattis et al. (Nat Methods 2011; 9: 159-72)). Primary cultured hippocampal neurons were prepared from PO Sprague-Dawley rat pups (Charles River). CA1 and CA3 were isolated, digested with 0.4 mg ml^−1 papain (Worthington), and plated onto glass coverslips precoated with 1:30 Matrigel (Becton Dickinson Labware). […]\nElectrophysiological recordings in cultured hippocampal neurons: Whole cell patch clamp recordings were performed on cultured hippocampal neurons 4-8 days post-transfection on an upright Leica DM-LFSA microscope (Mattis et al, 2011). […] Data acquisition, current and light manipulations were controlled using pClamp (Axon Instruments) via a Digidata 1440A interface and analyzed using ClampFit software (Axon Instruments). […]"}, "[2]": {"tested_on": "acid-sensing ion channels (ASICs)", "assay": "Pharmacological blockade of the ChR2 bystander current by the ASIC inhibitor amiloride", "format": "cell-based, mice", "protocol": "Whole cell patch clamp recordings on cortical and hippocampus neurons were performed on an upright Leica DM-LFSA microscope. Slices were continually perfused in warmed (33° C.) ACSF at a rate of 7 ml min^−1 Patching was performed in the presence of synaptic transmission blockers 6-cyano-7-nitroquinoxaline-2,3-dione (CNQX, 50 μM) and D(−)-2-amino-5-phosphonovaleric acid (APV, 25 μM) and gabazine (25 μM) (Tocris Bioscience) except for during testing of electrically-evoked synaptic responses. For amiloride experiments, amiloride was added to the ACSF at a concentration of 500 μM (Tocris). Borosilicate glass (Sutter Instruments) pipette resistances were pulled to 3-6 MΩ and filled with potassium gluconate intracellular solution (130 mM K Gluconate, 10 mM KCl, 10 mM HEPES, 10 mM EGTA, 2 mM MgCl2, pH adjusted with KOH to 7.3). Voltage and current clamp electrophysiological recordings and manipulations were performed using pClamp (Axon Instruments). Cells were held at −70 mV for all experiments. Cells with leak current greater than −300 pA or pipette resistance greater than 30 MΩ were excluded. […]"}, "Xenopus laevis oocytes": {"tested_on": "Xenopus laevis oocytes", "assay": "Two-electrode voltage clamp of CsR proton pump co-expressed with rat ASICs in oocytes", "format": "cell-based", "conditions": "co-expressed with CsRT46N; 560 nm, 0.1 mM MOPS, pH 7.5", "protocol": "Two-component optogenetics experiments. Construct design and expression in Xenopus laevis oocytes: The coding sequences for rat ASICs (in pRSSP6009) were provided by Stefan Grander (Aachen). The pRSSP6009 plasmid coding for ASICs and the pGEM plasmid coding for Coccomyxa subellipsoidea C-169 Rhodopsin CsRT46N were linearized by MulI site in pRSSP 6009 and by NheI in pGEM. After transcription into RNA using T7 (pGEM) or SP6 (pRSSP6009) mMessage mMachine Kit (Ambion Inc, Texas, USA) 32 ng of capped RNA encoding CsR pump and one type of ASIC were co-injected into Xenopus leavis oocytes with a molar ratio of 1:1 pump:channel for ASIC1 and ASIC2a and a molar ratio of 1:2 for ASIC3. Oocytes were incubated for 3 days at 18° C. in ORI solution with 1 μM all-trans retinal (Tsunoda & Hegemann, 2009).\nTwo-electrode voltage clamp measurements: TEVC measurements on X. laevis oocytes were performed using a GeneClamp 500 amplifier (Axon Instruments, Union City). Data acquisition, buffer exchange and light triggering were controlled with pClamp software via a Digidata 1322A interface (Molecular Devices, Sunnyvale). […] For pH titration, buffer solutions were adjusted with 5 mM MOPS/MES/Citrate over the range of pH 8.0 to 4.0, and were subsequently compared with photocurrents measured at 0.1 mM MOPS at pH 7.5"}}}
{"molecule": "Champ4.0: eArch3.0 and ASIC2a separated during protein translation by the ribosomal skip sequence p2A; SEQ ID NO:34", "values": [{"measurement": "Presence and reliability of the inward ASIC-mediated current component", "setting": "[1]; head-to-head comparison, increasing molecular separation, 0.1 mM buffer", "result": "occasionally saw large ASIC currents"}, {"measurement": "Cell health measures (leak current, membrane resistance, pipette resistance, resting membrane potential) across groups", "setting": "[1]; one-way ANOVA across 5 groups", "result": "no significant differences"}]}
{"molecule": "N=C(N)NC(=O)c1nc(Cl)c(N)nc1N", "note": "[amiloride]", "values": [{"measurement": "Magnitude of light-evoked bystander current, relative to baseline value", "setting": "[2]; 500 μM amiloride applied for 20 minutes, hippocampal ChR2 bystander neurons, 15 s light pulse", "result": "~50", "unit": "%"}, {"measurement": "Membrane resistance during amiloride application", "setting": "[2]; 500 μM amiloride, absence of any illumination", "result": "increase in membrane resistance"}]}
{"molecule": "ASIC3: rat acid-sensing ion channel co-expressed with CsR in oocytes (protein, UniProt O35240 1-533, looked up) Acid-sensing ion channel 3: MKPRSGLEEAQRRQASDIRVFASSCTMHGLGHIFGPGGLTLRRGLWATAVLLSLAAFLYQVAERVRYYGEFHHKTTLDERESHQLTFPAVTLCNINPLRRSRLTPNDLHWAGTALLGLDPAEHAAYLRALGQPPAPPGFMPSPTFDMAQLYARAGHSLEDMLLDCRYRGQPCGPENFTVIFTRMGQCYTFNSGAHGAELLTTPKGGAGNGLEIMLDVQQEEYLPIWKDMEETPFEVGIRVQIHSQDEPPAIDQLGFGAAPGHQTFVSCQQQQLSFLPPPWGDCNTASLDPDDFDPEPSDPLGSPRPRPSPPYSLIGCRLACESRYVARKCGCRMMHMPGNSPVCSPQQYKDCASPALDAMLRKDTCVCPNPCATTRYAKELSMVRIPSRASARYLARKYNRSESYITENVLVLDIFFEALNYEAVEQKAAYEVSELLGDIGGQMGLFIGASLLTILEILDYLCEVFQDRVLGYFWNRRSAQKRSGNTLLQEELNGHRTHVPHLSLGPRPPTTPCAVTKTLSASHRTCYLVTRL", "values": [{"measurement": "Inactivation in sustained light", "setting": "Xenopus laevis oocytes", "result": "strong inactivation"}]}
